pEC50, pKi: −log10 of the molar value.
Assays:
[1] = biological target: Rhodesain (Trypanosoma brucei rhodesiense) (UniProt Q95PM0); assay: Inhibition of Trypanosoma brucei rhodesiense rhodesain expressed in Pichia pastoris using Cbz-Phe-Arg-AMC as substrate assessed as second order rate constant obtained from ratio of Kinact by Ki incubated for 30 mins by fluorescence assay
[2] = Cytotoxicity against human SH-SY5Y cells assessed as reduction in cell viability incubated for 24 hrs by MTT assay; type: toxicity, cell-based
Rhodesain = Rhodesain (Trypanosoma brucei rhodesiense, UniProt Q95PM0); assay: Inhibition of Trypanosoma brucei rhodesiense rhodesain expressed in Pichia pastoris using Cbz-Phe-Arg-AMC as substrate assessed as inhibition constant incubated for 30 mins by fluorescence assay
Trypanosoma brucei = assay: Antitrypanosomal activity against Trypanosoma brucei incubated for 24 hrs by luminescence based ClarioStar plate reader analysis; type: functional, organism-based
[3] = biological target: Rhodesain (Trypanosoma brucei rhodesiense) (UniProt Q95PM0); assay: Inhibition of Trypanosoma brucei rhodesiense rhodesain expressed in Pichia pastoris using Cbz-Phe-Arg-AMC as substrate assessed as inactivation constant incubated for 30 mins by fluorescence assay
[4] = biological target: Rhodesain (Trypanosoma brucei rhodesiense) (UniProt Q95PM0); assay: Inhibition of Trypanosoma brucei rhodesiense rhodesain expressed in Pichia pastoris using Cbz-Phe-Arg-AMC as substrate at 20 uM incubated for 30 mins by fluorescence assay relative to control

Sequence of Rhodesain (Trypanosoma brucei rhodesiense) (Q95PM0 1-450): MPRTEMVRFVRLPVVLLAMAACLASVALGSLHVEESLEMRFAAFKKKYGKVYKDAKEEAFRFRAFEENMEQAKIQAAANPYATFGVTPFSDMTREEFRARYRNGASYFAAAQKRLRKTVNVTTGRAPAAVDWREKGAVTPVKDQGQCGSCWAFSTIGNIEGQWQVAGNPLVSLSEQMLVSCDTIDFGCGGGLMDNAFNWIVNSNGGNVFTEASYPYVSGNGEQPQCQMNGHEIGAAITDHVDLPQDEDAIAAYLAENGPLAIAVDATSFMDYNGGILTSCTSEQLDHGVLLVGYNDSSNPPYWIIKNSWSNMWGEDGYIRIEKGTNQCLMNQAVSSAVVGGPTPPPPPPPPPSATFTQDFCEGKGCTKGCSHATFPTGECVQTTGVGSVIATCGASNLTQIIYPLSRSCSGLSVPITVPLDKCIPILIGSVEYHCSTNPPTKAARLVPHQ
Sequence of Rhodesain (Q95PM0 whole entry): as the sequence (Q95PM0 1-450) above

Ratio [1] | pKi (Rhodesain) | pEC50 (Trypanosoma brucei) | Kinact [3] [min⁻¹] | inhibition [4] [%] | Compound | CC50 at 24 h [2] [nM]
146 10^3/M/min | 7.05 | 5.92 | 0.012 |  | CC(=O)/C=C/[C@H](CCc1ccccc1)NC(=O)[C@@H]1Cc2ccccc2CN1C(=O)c1ccc(F)cc1F | > 100000
 |  |  |  | 14 | CC(=O)/C=C/[C@H](CCc1ccccc1)NC(=O)[C@@H]1Cc2ccccc2CN1C(=O)Nc1ccc(C)cc1 | 
68.5 10^3/M/min | 7.80 | 6.24 | 0.001 |  | CC(=O)/C=C/[C@H](CCc1ccccc1)NC(=O)[C@@H]1Cc2ccccc2CN1C(=O)[C@H](CC(C)C)NC(=O)OCc1ccccc1 | > 100000
8 10^3/M/min | 5.72 | 6.07 | 0.015 |  | CC(=O)/C=C/[C@H](CCc1ccccc1)NC(=O)[C@@H]1Cc2ccccc2CN1C(=O)c1ccc(F)cc1 | > 100000
 |  | 5.51 |  |  | CC(=O)/C=C/[C@H](CCc1ccccc1)NC(=O)[C@H](Cc1ccccc1)NC(=O)[C@H](CC(C)C)NC(=O)OCc1ccccc1 | 
75.6 10^3/M/min | 7.96 | 6.38 | 0.001 |  | CC(=O)/C=C/[C@H](CCc1ccccc1)NC(=O)[C@@H]1Cc2ccccc2CN1C(=O)[C@H](Cc1ccccc1)NC(=O)OCc1ccccc1 | > 100000
 |  | 5.59 |  |  | CC(=O)/C=C/[C@H](CCc1ccccc1)NC(=O)[C@H](Cc1ccccc1)NC(=O)[C@H](Cc1ccccc1)NC(=O)OCc1ccccc1 | 
 |  |  |  | 40 | CC(=O)/C=C/[C@H](CCc1ccccc1)NC(=O)[C@@H]1Cc2ccccc2CN1C(=O)Nc1ccc(Cl)cc1C | 
47.9 10^3/M/min | 7.66 | 6.24 | 0.001 |  | CC(=O)/C=C/[C@H](CCc1ccccc1)NC(=O)[C@@H]1Cc2ccccc2CN1C(=O)[C@H](CC1CCCCC1)NC(=O)OCc1ccccc1 | > 100000
 |  | 5.89 |  |  | CC(=O)/C=C/[C@H](CCc1ccccc1)NC(=O)[C@H](Cc1ccccc1)NC(=O)[C@H](CC1CCCCC1)NC(=O)OCc1ccccc1 | 
 |  |  |  | 20.2 | CC(=O)/C=C/[C@H](C)NC(=O)[C@@H]1Cc2ccccc2CN1C(=O)c1ccc(F)cc1F | 
30.1 10^3/M/min | 6.15 | 5.87 | 0.021 |  | CC(=O)/C=C/[C@H](CCc1ccccc1)NC(=O)[C@@H]1Cc2ccccc2CN1C(=O)c1cccc(F)c1 | > 100000
 |  |  |  | 11 | CC(=O)/C=C/CNC(=O)[C@@H]1Cc2ccccc2CN1C(=O)c1ccc(F)cc1F | 
 |  |  |  | 18 | CC(=O)/C=C/[C@H](CCc1ccccc1)NC(=O)[C@@H]1Cc2ccccc2CN1C(=O)OC(C)(C)C | 
4.1 10^3/M/min | 5.31 | 6.04 | 0.019 |  | CC(=O)/C=C/[C@H](CCc1ccccc1)NC(=O)[C@@H]1Cc2ccccc2CN1C(=O)c1ccccc1F | > 100000
 |  |  |  | 32 | CC(=O)/C=C/[C@H](CCc1ccccc1)NC(=O)[C@@H]1Cc2ccccc2CN1C(=O)c1c(F)cccc1F | 
 |  |  |  | 18.4 | CC(=O)/C=C/[C@H](Cc1ccccc1)NC(=O)[C@@H]1Cc2ccccc2CN1C(=O)c1ccc(F)cc1F | 
6.7 10^3/M/min | 6.14 | 6.17 | 0.005 |  | CC(=O)/C=C/[C@H](CCc1ccccc1)NC(=O)[C@@H]1Cc2ccccc2CN1C(=O)OCc1ccccc1 | > 100000
 |  |  |  | 26 | CC(=O)/C=C/[C@H](CCc1ccccc1)NC(=O)[C@@H]1Cc2ccccc2CN1C(=O)[C@H](C)NC(=O)OCc1ccccc1 | 

Source: ChEMBL document CHEMBL6109075, “Identification of constrained peptidomimetics carrying a Michael acceptor warhead as antitrypanosomal agents” (Eur J Med Chem, 2025)
